ChEMBL document CHEMBL3132850, “5-Nor carbocyclic nucleosides: unusual nonnucleoside inhibitors of HIV-1 reverse transcriptase” (Medchemcomm, 2013)
Calls of active or inactive are those of the source. No cut-off for these calls is given here.

What was measured:
[1] = Cytotoxicity against human CEM cells after 3 days; type: cell-based; conditions: CEM cells (CCRF-CEM)
[2] = target: Human immunodeficiency virus type 1 reverse transcriptase (Human immunodeficiency virus 1, UniProt Q72547); test: (§1) Inhibition of HIV1 wild type reverse transcriptase expressed in Escherichia coli BL21 (DE3) using [alpha-32P]dATP after 30 mins by liquid scintillation counting
[3] = tested on: Human immunodeficiency virus 1; test: Antiviral activity against HIV1 3B infected in human CEM cells assessed as reduction of giant cell formation after 4 days by microscopic analysis; type: functional, organism-based; conditions: Human immunodeficiency virus 1, 3B, CCRF-CEM, 96 h
[4] = target: Human immunodeficiency virus type 1 reverse transcriptase (Human immunodeficiency virus 1, UniProt Q72547, G190A); test: Inhibition of HIV1 reverse transcriptase G190A mutant expressed in Escherichia coli BL21 (DE3) using [alpha-32P]dATP after 30 mins by liquid scintillation counting
Human alphaherpesvirus 3 = test: Antiviral activity against Varicella-zoster virus; type: functional, organism-based
Influenza A virus H3N2 = test: Antiviral activity against Influenza A virus H3N2; type: functional, organism-based
Human alphaherpesvirus 2 = test: Antiviral activity against Herpes simplex virus-2 G; type: functional, organism-based; conditions: strain G
Punta Toro virus = test: Antiviral activity against Punta Toro virus; type: functional, organism-based
Influenza B virus = test: Antiviral activity against Influenza B virus; type: functional, organism-based
[5] = target: Human immunodeficiency virus type 1 reverse transcriptase (Human immunodeficiency virus 1, UniProt Q72547, V106A); test: Inhibition of HIV1 reverse transcriptase V106A mutant expressed in Escherichia coli BL21 (DE3) using [alpha-32P]dATP after 30 mins by liquid scintillation counting
[6] = target: Human immunodeficiency virus type 1 reverse transcriptase (Human immunodeficiency virus 1, UniProt Q72547, L100I); test: Inhibition of HIV1 reverse transcriptase L100I mutant expressed in Escherichia coli BL21 (DE3) using [alpha-32P]dATP after 30 mins by liquid scintillation counting
[7] = tested on: Mammalian orthoreovirus 1; test: Antiviral activity against Reovirus-1; type: functional, organism-based
Sindbis virus = test: Antiviral activity against Sindbis virus; type: functional, organism-based
[8] = tested on: Vesicular stomatitis virus; test: Antiviral activity against Vesicular stomatitis virus; type: functional, organism-based
Influenza A virus = test: Antiviral activity against Influenza A virus H1N1; type: functional, organism-based
[9] = tested on: Respiratory syncytial virus; test: Antiviral activity against Respiratory syncytial virus; type: functional, organism-based
[10] = target: Human immunodeficiency virus type 1 reverse transcriptase (Human immunodeficiency virus 1, UniProt Q72547, K103N/Y181C); test: Inhibition of HIV1 reverse transcriptase K103N/Y181C mutant expressed in Escherichia coli BL21 (DE3) using [alpha-32P]dATP after 30 mins by liquid scintillation counting
[11] = target: Human immunodeficiency virus type 1 reverse transcriptase (Human immunodeficiency virus 1, UniProt Q72547, Y181C); test: Inhibition of HIV1 reverse transcriptase Y181C mutant expressed in Escherichia coli BL21 (DE3) using [alpha-32P]dATP after 30 mins by liquid scintillation counting
Feline coronavirus = test: Antiviral activity against Feline coronavirus; type: functional, organism-based
[12] = target: Human immunodeficiency virus type 1 reverse transcriptase (Human immunodeficiency virus 1, UniProt Q72547, K103N); test: Inhibition of HIV1 reverse transcriptase K103N mutant expressed in Escherichia coli BL21 (DE3) using [alpha-32P]dATP after 30 mins by liquid scintillation counting
Vaccinia virus = test: Antiviral activity against Vaccinia virus; type: functional, organism-based; conditions: Orthopoxvirus vaccinia
Human respirovirus 3 = test: Antiviral activity against Parainfluenza virus 3; type: functional, organism-based
Coxsackievirus B4 = test: Antiviral activity against Coxsackievirus B4; type: functional, organism-based
Human alphaherpesvirus 1 = test: Antiviral activity against Herpes simplex virus-1 KOS; type: functional, organism-based
[13] = tested on: Human immunodeficiency virus 1; test: Ratio of IC50 for HIV1 wild type reverse transcriptase to IC50 for HIV1 reverse transcriptase L100I mutant
[14] = target: Human immunodeficiency virus type 1 reverse transcriptase (Human immunodeficiency virus 1) (UniProt Q72547); test: as §1
[15] = Solubility of the compound in 10% DMSO up to 50 uM; type: physicochemical

O=C(OC1C=CC(n2ccc(=O)n(Cc3cc(F)cc(F)c3)c2=O)C1)c1ccccc1 (racemic)
CC50 at 72 h [1]: 32 µM
IC50 [2]: > 50 µM
EC50 [3]: > 10 µM

O=C(OC1C=CC(n2ccc(=O)n(C(=O)c3ccccc3)c2=O)C1)c1ccccc1 (racemic)
CC50 at 72 h [1]: ≥ 250 µM
IC50 [2]: > 100 µM
EC50 [3]: > 50 µM

CC(C)Nc1cccnc1N1CCN(C(=O)c2cc3cc(NS(C)(=O)=O)ccc3[nH]2)CC1 [DELAVIRDINE]
CC50 at 72 h [1]: > 25 µM
EC50 [3]: 0.11 µM

O=C(OC1C=CC(n2ccc(=O)[nH]c2=O)C1)c1ccccc1 (racemic)
CC50 at 72 h [1]: > 250 µM
IC50 [2]: > 100 µM
EC50 [3]: > 250 µM

Cc1cc(=O)n(Cc2ccccc2)c(=O)n1C1C=CC(OC(=O)c2ccccc2)C1 (racemic)
CC50 at 72 h [1]: 34 µM
IC50 [2]: > 50 µM
EC50 [3]: > 10 µM

Cc1ccc(Cn2c(=O)ccn(C3C=CC(OC(=O)c4ccccc4)C3)c2=O)c(C)c1 (racemic)
CC50 at 72 h [1]: 31 µM
IC50 [2]: > 50 µM
EC50 [3]: > 50 µM

O=C(OC1C=CC(n2ccc(=O)n(Cc3ccccc3)c2=O)C1)c1ccccc1 (racemic)
IC50 [4]: > 50 µM
Activity (Human alphaherpesvirus 3): inactive
Activity (Influenza A virus H3N2): inactive
Activity (Human alphaherpesvirus 2): inactive
Activity (Punta Toro virus): inactive
Activity (Influenza B virus): inactive
IC50 [5]: > 50 µM
IC50 [6]: 1.2 µM
Activity [7]: inactive
Activity (Sindbis virus): inactive
CC50 at 72 h [1]: > 25 µM
Activity [8]: inactive
IC50 [2]: 13.4 µM
Activity (Influenza A virus): inactive
Activity [9]: inactive
IC50 [10]: > 50 µM
IC50 [11]: > 50 µM
Activity (Feline coronavirus): inactive
IC50 [12]: 33.6 µM
Activity (Vaccinia virus): inactive
Activity (Human respirovirus 3): inactive
EC50 [3]: > 10 µM
Activity (Coxsackievirus B4): inactive
Activity (Human alphaherpesvirus 1): inactive

Cc1cc(=O)[nH]c(=O)n1C1C=CC(OC(=O)c2ccccc2)C1 (racemic)
CC50 at 72 h [1]: > 250 µM
IC50 [2]: > 100 µM
EC50 [3]: > 50 µM

Cc1cc(=O)n(C(=O)c2ccccc2)c(=O)n1C1C=CC(OC(=O)c2ccccc2)C1 (racemic)
CC50 at 72 h [1]: 191 µM
IC50 [2]: > 100 µM
EC50 [3]: > 50 µM

Cc1ccc(Cn2c(=O)cc(C)n(C3C=CC(OC(=O)c4ccccc4)C3)c2=O)cc1 (racemic)
CC50 at 72 h [1]: 20 µM
IC50 [2]: > 50 µM
EC50 [3]: > 10 µM

Cc1ccnc2c1NC(=O)c1cccnc1N2C1CC1 [NEVIRAPINE]
CC50 at 72 h [1]: > 25 µM
EC50 [3]: 0.024 µM

Cc1cc(C)cc(Cn2c(=O)ccn(C3C=CC(OC(=O)c4ccccc4)C3)c2=O)c1 (racemic)
IC50 [4]: > 50 µM
Activity (Human alphaherpesvirus 3): inactive
Activity (Influenza A virus H3N2): inactive
Activity (Human alphaherpesvirus 2): inactive
Ratio IC50 [13]: 10
Activity (Punta Toro virus): inactive
Activity (Influenza B virus): inactive
IC50 [5]: > 50 µM
IC50 [6]: 11.1 µM
Activity [7]: inactive
Activity (Sindbis virus): inactive
CC50 at 72 h [1]: 40 µM
Activity [8]: inactive
IC50 [2]: > 50 µM
inhibition [14]: Dose-dependent effect
solubility [15]: soluble
Activity (Influenza A virus): inactive
Activity [9]: inactive
IC50 [10]: > 50 µM
IC50 [11]: > 50 µM
Activity (Feline coronavirus): inactive
IC50 [12]: > 50 µM
Activity (Vaccinia virus): inactive
Activity (Human respirovirus 3): inactive
EC50 [3]: > 10 µM
Activity (Coxsackievirus B4): inactive
Activity (Human alphaherpesvirus 1): inactive

Cc1cc(C)cc(Cn2c(=O)cc(C)n(C3C=CC(OC(=O)c4ccccc4)C3)c2=O)c1 (racemic)
CC50 at 72 h [1]: 25 µM
IC50 [2]: > 50 µM
EC50 [3]: > 10 µM

Cc1ccc(Cn2c(=O)ccn(C3C=CC(OC(=O)c4ccccc4)C3)c2=O)cc1 (racemic)
IC50 [4]: > 50 µM
Activity (Human alphaherpesvirus 3): inactive
Activity (Influenza A virus H3N2): inactive
Activity (Human alphaherpesvirus 2): inactive
Activity (Punta Toro virus): inactive
Activity (Influenza B virus): inactive
IC50 [5]: > 50 µM
IC50 [6]: 2.4 µM
Activity [7]: inactive
Activity (Sindbis virus): inactive
CC50 at 72 h [1]: > 25 µM
Activity [8]: inactive
IC50 [2]: 18.7 µM
Activity (Influenza A virus): inactive
Activity [9]: inactive
IC50 [10]: > 50 µM
IC50 [11]: > 50 µM
Activity (Feline coronavirus): inactive
IC50 [12]: 55.4 µM
Activity (Vaccinia virus): inactive
Activity (Human respirovirus 3): inactive
EC50 [3]: > 10 µM
Activity (Coxsackievirus B4): inactive
Activity (Human alphaherpesvirus 1): inactive

O=c1ccn(C2C=CC(O)C2)c(=O)n1Cc1ccccc1 (racemic)
CC50 at 72 h [1]: > 250 µM
IC50 [2]: > 100 µM
